This is an account of results in US20250059182A1, “SOS1 INHIBITORS” (Mirati Therapeutics, Inc., priority 2021, published 2025).

One may read the Ki as the dissociation constant of the complex between target and ligand, obtained from inhibition or displacement. One may read the IC50 as the concentration at which inhibition is half-maximal.

The target of assay [1] is T1, recombinant human SOS1 polypeptide (amino acids 560-1049) (Homo sapiens, UniProt Q07889).
T1 construct: corresponding to amino acids 560-1049, expressed in E. Coli; made in house; host or cells: E. coli
T1 sequence (Q07889 560-1049): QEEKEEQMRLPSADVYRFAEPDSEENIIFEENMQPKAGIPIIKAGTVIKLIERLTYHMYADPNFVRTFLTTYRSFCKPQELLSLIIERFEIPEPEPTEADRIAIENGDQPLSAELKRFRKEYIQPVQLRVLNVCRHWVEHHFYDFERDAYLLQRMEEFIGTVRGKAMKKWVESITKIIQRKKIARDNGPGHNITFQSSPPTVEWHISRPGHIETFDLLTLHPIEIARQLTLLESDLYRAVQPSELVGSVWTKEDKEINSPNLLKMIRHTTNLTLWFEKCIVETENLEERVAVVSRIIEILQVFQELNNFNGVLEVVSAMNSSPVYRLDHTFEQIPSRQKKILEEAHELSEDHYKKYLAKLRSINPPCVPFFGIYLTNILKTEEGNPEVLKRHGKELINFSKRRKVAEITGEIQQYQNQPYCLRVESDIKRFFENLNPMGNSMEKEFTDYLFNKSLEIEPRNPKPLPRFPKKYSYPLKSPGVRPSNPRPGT
Description: HTRF displacement assay: inhibition of labeled tracer binding to SOS1. For orientation: TR-FRET usually uses a lanthanide donor and a delayed reading to cut background.
Description: The ability of a compound of Formula (I) to bind to SOS1 was measured using a HTRF displacement assay. […] After a 1-hour incubation at room temperature, the HTRF signal was measured using Clairostar plate reader (BMG Labtech) according to the manufacturer's instructions. Excitation filter EX-TR was used, and emission 1 was detected at 650-610 nm and emission 2 detected at 620-610 nm. The HTRF ratio was calculated using the formula: [emission 1/emission 2]*10000.
Background signals were calculated from well with a 10 μM inhibitor, known to inhibit 100% at that concentration. The background subtracted signals were converted to % binding relative to DMSO controls. Data were analyzed using XLFIT software (IDBS) using a Morrison equation for competitive binding and Ki's were generated compound of Formula (I).

In assay [2] the test system is pERK in MKN1 cells. Description: pERK inhibition, In-Cell Western (LI-COR Odyssey), MKN1 cells. The class given is cell-based. Particulars: MKN1 or H358 cells (table does not say which), 0.5-1 hour incubation, read-out: IC50 (nM), pERK inhibition. A digest of the protocol: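 MKN1 cells were exposed for about 0.5–1 h at 37 °C to nine 3-fold dilutions starting at 10 µM. Cells were then fixed in formaldehyde, permeabilised with methanol, and immunostained for pERK and GAPDH with near-infrared secondary antibodies. GAPDH-normalised pERK signal relative to vehicle gave % inhibition, from which IC50 was fitted.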

Where [3] appears, read: Table A, Morrison equation for competitive binding.
Where [4] appears, read: Table A1, Morrison equation for competitive binding.

The structures appear in SMILES notation. Where two headings read alike, the source gives them in different places.

Take `Cc1nnc(N[C@H](C)c2ccc(C#N)cc2F)c2cc(N3C[C@H]4C[C@@H]3CO4)ncc12` [Example 1-96, 4-((R)-1-((7-((1R,4R)-2-oxa-5-azabicyclo[2.2.1]heptan-5-yl)-4-methylpyrido[3,4-d]pyridazin-1-yl)amino)ethyl)-3-fluorobenzonitrile]: in assay [1] (setting [3]), the Ki turned out to be 19.1 nM. Besides, the IC50 in assay [2] (Homo sapiens, MKN-1, Table B) came out at 255 nM.

On to `Cc1c(C#N)cccc1[C@@H](C)Nc1nnc(C)c2c(C)nc(N3C[C@H]4C[C@@H]3CN4C)cc12` [Example P-192, 3-((R)-1-((4,5-dimethyl-7-((1R,4R)-5-methyl-2,5-diazabicyclo[2.2.1]heptan-2-yl)pyrido[3,4-d]pyridazin-1-yl)amino)ethyl)-2-methylbenzonitrile], for which, in assay [1] (setting [4]), the inhibition constant (Ki) worked out at 2.93 nM. Also, in assay [2] (Homo sapiens, MKN-1, Table B1), the IC50 was 104 nM.

Regarding `Cc1c(C#N)cccc1[C@@H](C)Nc1nnc(C)c2cnc(N3CC[C@H]4[C@@H]3CN4C)cc12` (single isomer, unassigned) [Example 6-11], the Ki in assay [1] (setting [3]) was 2.78 nM. Also, the IC50 in assay [2] (Homo sapiens, MKN-1, Table B) amounted to 199 nM.

Turning to `Cc1nnc(N[C@H](C)c2cccc(C(F)F)c2F)c2cc(N3CCN(CCCF)CC3)ncc12` [Example P-227, (R)-N-(1-(3-(difluoromethyl)-2-fluorophenyl)ethyl)-7-(4-(3-fluoropropyl)piperazin-1-yl)-4-methylpyrido[3,4-d]pyridazin-1-amine], the Ki in assay [1] (setting [4]) is 0.396 nM. In addition, the IC50 in assay [2] (Homo sapiens, MKN-1, Table B1) worked out at 223 nM.

`Cc1c(C#N)cccc1[C@@H](C)Nc1nnc(C)c2cnc(-c3ccc(CN(C)C)cc3)cc12` [Example 3-1, (R)-3-(1-((7-(4-((dimethylamino)methyl)phenyl)-4-methylpyrido[3,4-d]pyridazin-1-yl)amino)ethyl)-2-methylbenzonitrile]: the Ki in assay [1] (setting [3]) came to 6.11 nM. Further, the IC50 in assay [2] (Homo sapiens, MKN-1, Table B) was determined as 192 nM.

For `Cc1c(C#N)cccc1[C@@H](C)Nc1nnc(CN(C)C)c2cnc(N3CC4(COC4)C3)cc12` [Example 6-1, (R)-3-(1-((4-((dimethylamino)methyl)-7-(2-oxa-6-azaspiro[3.3]heptan-6-yl)pyrido[3,4-d]pyridazin-1-yl)amino)ethyl)-2-methylbenzonitrile], in assay [1] (setting [3]), the Ki came to 18.3 nM. Further, in assay [2] (Homo sapiens, MKN-1, Table B), the IC50 was 171 nM.

Regarding `Cc1c([C@@H](C)Nc2nnc(C)c3cnc(N4CCOCC4)cc23)cc(N)nc1C(F)(F)F` [Example 1-105, (R)-N-(1-(6-amino-3-methyl-2-(trifluoromethyl)pyridin-4-yl)ethyl)-4-methyl-7-morpholinopyrido[3,4-d]pyridazin-1-amine], the Ki in assay [1] (setting [3]) came to 4.39 nM. Also, the IC50 in assay [2] (Homo sapiens, MKN-1, Table B) turned out to be 31.1 nM.

On to `Cc1c(C#N)cccc1[C@@H](C)Nc1nnc(C)c2cnc(N3C[C@@H]4[C@H]3CCN4C)cc12` (single isomer, unassigned) [Example 6-13], for which the Ki in assay [1] (setting [3]) is 0.615 nM. For the same compound, in assay [2] (Table B), the IC50 stood at 16.3 nM.

Turning to `Cc1c(C#N)cccc1[C@@H](C)Nc1nnc(C)c2cnc(N3CC[C@H](N)C3)cc12` [Example 1-9, 3-((R)-1-((7-((S)-3-aminopyrrolidin-1-yl)-4-methylpyrido[3,4-d]pyridazin-1-yl)amino)ethyl)-2-methylbenzonitrile], the Ki in assay [1] (setting [3]) worked out at 1.66 nM. For the same compound, the IC50 in assay [2] (Homo sapiens, MKN-1, Table B) was determined as 396 nM.

Take `Cc1c(C#N)cccc1[C@@H](C)Nc1nnc(C)c2c(C)nc(N(C)[C@H]3CCN(C)C3)cc12` [Example P-190, 3-((R)-1-((4,5-dimethyl-7-(methyl((S)-1-methylpyrrolidin-3-yl)amino)pyrido[3,4-d]pyridazin-1-yl)amino)ethyl)-2-methylbenzonitrile]: the Ki in assay [1] (setting [4]) was determined as 0.572 nM. In assay [2] (Homo sapiens, MKN-1, Table B1), the IC50 is 63.6 nM.

On to `CNc1cc2c(N[C@H](C)c3cccc(C#N)c3C)nnc(C)c2cc1F` [Example P-221, (R)-3-(1-((6-fluoro-4-methyl-7-(methylamino)phthalazin-1-yl)amino)ethyl)-2-methylbenzonitrile], for which the Ki in assay [1] (setting [4]) came out at 8.75 nM. Besides, the IC50 in assay [2] (Homo sapiens, MKN-1, Table B1) came to 154 nM.

On to `Cc1c(C#N)cccc1[C@@H](C)Nc1nnc(C)c2cc(F)c(N3C[C@H]4[C@@H]3CCN4C)cc12` (single isomer, unassigned) [Example 9-1], for which, in assay [1] (setting [3]), the Ki stood at 1 nM. Besides, the IC50 in assay [2] (Homo sapiens, MKN-1, Table B) worked out at 15.5 nM.
